From US20200390102A1, “SYNERGISTIC ANTIMICROBIAL COMPOSITION” (DDP SPECIALTY ELECTRONIC MATERIALS US, INC., priority 2017, published 2020)

Tests used:
[1] = tested on: Pseudomonas aeruginosa (ATCC […]) and Escherichia coli (ATCC 10145) combined inoculum; experiment: Synergy in the planktonic phase, 48 h biocide challenge with regrowth (turbidity) readout; assay type: cell-based; conditions: P. aeruginosa/E. coli, 48 h challenge at 30° C., phosphate buffer pH 7.3
Description: Pseudomonas aeruginosa (ATCC […]) and Escherichia coli (ATCC 10145) cultures were separately prepared from glycerol stocks. First they were streak plated and validated with a microscope. Single colonies were picked and used to inoculate 200 mL shake flasks that were grown statically overnight at 30° C. (30 grams/L Tryptic Soy Broth) to produce the initial inoculum. A deep-well 96 well challenge plate (2 mL maximum well volume) was prepared using 900 μL/well phosphate buffer at pH 7.3, (0.0027M potassium chloride, 0.137 M sodium chloride). Inoculation took place at the start of the experiments (with a 100 μL combined inoculum, adding to the 900 μL buffer to total 1 mL/well). The inoculum added between 1*10^8 and 1*10^9 total cells/mL based on OD600 measurement. […]
The inoculated assay block was challenged at 30° C. for 48 hours. […] This was done in triplicate for each point (the triplicate is already present in the biocide block viz. each point is truly determined in triplicate). […]
The recovery plates were subsequently read (checked for microbial growth) at 72 hours after addition of the culture, to recovery media. Ranking of biocidal efficacy was done by recording the development of turbidity within each well (determined by visual inspection). […] Ranking was done per average value of three data points determined per experiment. (Recorded in log regrowth). […]

[2] = tested on: Thermus thermophilus (DSM: 579); experiment: Synergy in the planktonic phase, 48 h biocide challenge at 60° C. with dilution-series regrowth readout; assay type: cell-based
Description: Experiments using Thermus thermophdus (DSM: 579) as a test organism were also performed. In these experiments, the total concentration of biocides was 300 ppm for the combined total actives, the temperature at which the experiments were performed was 60° C., the media to grow Thermus thermophdus was DSMZ DSM 74-Media at pH 8.0. (Yeast extract (BD Difco) 4.0 g, Proteose peptone Nr. 3 (BD Difco) 8.0 g, NaCl 2.0 g, distilled water added to 1 L). The challenging with biocides against Thermus thermophilus was done in a standard ocean matrix with a similar salinity of 2% (similar to the media where they are cultured in). Once again, each experiment was done in triplicate.
The inoculated assay block was challenged at 60° C. for 48 hours. The inoculum prepared added between to 1*10^8 to 1*10^9 total cells/mL (determined by MPN analysis). After 48 hours of challenge with biocide, 20 μL aliquots of each treatment (well) were added to one of several 96 well plates with DSM 74-media. These 96 well plates were filled with ‘recovery’ media (DSM 74-Media). One of these plates was prepared for each column of the assay block. 180 μL recovery media was added to each well of a 96 well plate, except for column 1 of the recovery plate. This column was filled with 180 μL of one column of the assay block. The last three columns on the recovery plate were not pipetted. These columns represented the no template control for verifying proper plate set up and data reliability. The assay block sample was then diluted in steps of 10 fold by transferring 20 μL from e.g. columns 1 to column 2 and from column 2 to column 3 (until column 9) by applying a multichannel pipet in each recovery plate. […]
The recovery plates were allowed to regrow for 4-6 days and subsequently read (checked for microbial growth). This was done in duplicate for each point (the duplicate is already present in the biocide block viz. each point is truly determined in duplicate). […] Turbidity was checked in log scale reading the recovery plates. Turbidity was recorded via presence/absence and gave the log kill range (from the made dilution series). […]

Molecule | THPS stand alone 48 h pass ([1]; THPS alone) | THPS stand alone 48 h pass ([2]; T. thermophilus, THPS alone, 48 h challenge at 60° C., ocean matrix 2% salinity) | Glyoxal stand alone 48 h pass ([1]; glyoxal alone) | Glyoxal stand alone 48 h pass ([2]; T. thermophilus, glyoxal alone, 48 h challenge at 60° C., ocean matrix 2% salinity) | Sensitivity of Thermus thermophilus to Glyoxal ([2]; vs. Pseudomonas aeruginosa and E. coli)
tetrakis(hydroxymethyl)phosphonium sulfate [THPS] | 130 ppm | 300 ppm |  |  | 
O=CC=O [Glyoxal, glyoxal] |  |  | 875 ppm | 59 ppm | *Thermus thermophilus is more sensitive to Glyoxal vs. Pseudomonas aeruginosa and E. coli.
